Experimental data from patent US8729128B2, “Lipoxin A4 protection for cornea endothelial cells” (Board of Supervisors of Louisiana State University And …, priority 2007, dated 2014).

Columns and labels:
Assay type in all cases: cell-based
[1] = test system: human corneal endothelial cells; experiment: Cell migration in a wound of human corneal endothelial cells; conditions: human CEC, 100 nM, at 48 hours, p<0.05
Procedure: (§1) Human eyeballs were obtained from NDRI (National Disease Research Interchange, Philadelphia, Pa.) and shipped to the laboratory on ice. The corneas were excised along the sclerocorneal rim, and the endothelia together with the Decemet's membrane were removed with tooth-free fine forceps under a dissection microscope. Pieces of the endothelia were seeded in DMEM/F12 (GIBCO®, Grand Island, N.Y.) supplemented with 15% FBS in 12-well plates. Cell phenotypes were identified and confirmed by using the endothelial cell marker anti-ZO-1 antibody (Zymed Laboratories, Inc., San Francisco, Calif.). […] This method of cell culture was used to establish cell cultures from several human eyeballs.
A secondary passage of human corneal endothelial cells derived from a donor was obtained as described above in Example 4. The cells were grown to 70% confluence in 24-well plate, and then starved for 24 hours. […] Wound healing was determined by phase contrast images collected by a camera attached to the microscope, and the result shown in FIG. 6B. The width of wound was calculated using Metavue Image software. The degree of cell migration was quantified by measuring the width of the wounded area at 24 and 48 hours, and the data shown in FIG. 6A. […]

[2] = test system: human corneal endothelial cells; experiment: Proliferation of cultured human corneal endothelial cells (Ki-67 immunofluorescence); conditions: human CEC, second passage, 100 nM, 24 hours
Procedure: as §1
A secondary passage of human corneal endothelial cells derived from a donor was obtained as described above in Example 4. The cells were grown to 70% confluence in 24-well plate, and then starved for 24 hours. The starved cells were then incubated in DMEM/F12 containing 0.5% FBS with or without 15-epimer LxA4 (100 nM; from Calbiochem, Madison, Wis.) for 24 hours. […] Based on the rabbit studies above, it is believed that lipoxin A4 and its other analogs would show similar results as the 15-epimer lipoxin A4 used in these experiments.

[3] = test system: Rabbit corneal endothelial cells (RCEC); experiment: In vitro wound closure in confluent rabbit corneal endothelial cells; conditions: 10 nM and 100 nM, 24 hours
Excerpt: (§2) Rabbit corneal endothelial cells (RCEC) and human corneal endothelial cells along with the Decemet's membrane were isolated from normal eyes (National Disease Research Interchange (NDRI), Philadelphia, Pa.), and the cells were suspended in Dulbecco's Modified Eagle Medium/Nutrient Mixture F-12 (DMEM/F12; GIBCO®, Grand Island, N.Y.) supplemented with 15% fetal bovine serum (FBS; GIBCO®), and seeded in 12-well plates. Cell phenotype was identified by using the endothelial cell marker anti-ZO-1 antibody (anti-zonula occludins-1 antibody) (Zymed Laboratories, Inc., San Francisco, Calif.). The localization of the lipoxin A4 (LXA4) receptor was detected with the polyclonal antibody FPRL1 (formyl peptide receptor-like 1; sc-13193, Santa Cruz Biotechnology, Inc., Santa Cruz, Calif.) (FIG. 1). […] The same was found with human endothelial cells. (Data not shown) This is the first time such receptor has been reported in cornea endothelial cells.
To measure in vitro wound closure, 12-day cultures of completely confluent RCEC in 12-well plates were wounded by linear scraping with a sterile plastic tip in the center of the well. Cells were incubated for 24 hours in DMEM/F12 with or without 15-epimer lipoxin A4 at 10 nM and 100 nM concentrations. The width of wound was calculated using Metavue Image software. […]

[4] = test system: Rabbit corneal endothelial cells (RCEC); experiment: Proliferation of rabbit corneal endothelial cells (Ki-67 antibody staining); conditions: rabbit CEC, 10 nM to 200 nM, DMEM/F12 0.5% FBS, 24 hours
Excerpt: as §2
Proliferation of cornea endothelial cells was evaluated with anti-Ki-67 antibody (Zymed Laboratories, Inc., San Francisco, Calif.). Rabbit CEC cells were grown at 60-70% confluence, starved for 24 hours, and then treated with 15-epimer-lipoxin A4 (Calbiochem, Madison, Wis.) at different concentrations from 10 nM to 200 nM in DMEM/F12 containing 0.5% FBS for 24 hours. […] In addition, a similar experiment was conducted using lipoxin A4.

| Compound | cell migration (width of the wounded area) [1] | cell proliferation (percentage of Ki-67-positive cells versus total cells) [2] | wound healing (width of wound) [3] | number of cells with Ki-67 staining (proliferation) [4] |
| --- | --- | --- | --- | --- |
| CCCCC[C@@H](O)/C=C/C=C\C=C\C=C\[C@@H](O)[C@@H](O)CCCC(=O)O [15-epimer lipoxin A4] | significant increase in cell migration | significant increase | promoted wound healing | increases with the concentration |
| CCCCC[C@H](O)/C=C/C=C\C=C\C=C\[C@@H](O)[C@@H](O)CCCC(=O)O [lipoxin A4] | – | – | the same, both qualitatively and quantitatively | the same, both qualitatively and quantitatively |
